Laboratory results from patent US20230150986A1, “ANTAGONISTS OF THE MUSCARINIC ACETYLCHOLINE RECEPTOR M4” (Vanderbilt University, priority 2019, published 2023).

Target: T1, Human M4 (Homo sapiens, UniProt P08173)
T1 construct: Human or rat M4 cDNA, along with the chimeric G protein Gq,5, were transfected into Chinese hamster ovary (CHO-K1) cells; expressed in transfected cells; host or cells: CHO-K1 (M4/Gqi5/CHO)
T1 sequence (P08173 1-479): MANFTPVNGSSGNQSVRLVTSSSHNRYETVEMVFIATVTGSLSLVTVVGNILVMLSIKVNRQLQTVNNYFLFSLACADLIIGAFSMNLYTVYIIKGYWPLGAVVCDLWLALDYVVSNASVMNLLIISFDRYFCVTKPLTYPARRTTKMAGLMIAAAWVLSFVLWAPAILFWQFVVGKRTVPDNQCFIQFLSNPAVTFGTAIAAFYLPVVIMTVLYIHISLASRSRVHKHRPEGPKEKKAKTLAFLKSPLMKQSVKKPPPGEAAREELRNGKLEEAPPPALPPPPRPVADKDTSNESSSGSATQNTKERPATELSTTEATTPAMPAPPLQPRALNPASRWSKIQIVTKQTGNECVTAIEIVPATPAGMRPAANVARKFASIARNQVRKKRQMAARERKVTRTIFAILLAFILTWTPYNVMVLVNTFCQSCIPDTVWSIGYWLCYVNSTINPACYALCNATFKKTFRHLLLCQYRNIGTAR
Assay: mAChR M4 cell-based functional assay (calcium flux, decrease of EC80 acetylcholine response)
Conditions: for Human M4 Emin: % ACh maximum at 30 μM; for IC50: CHO-K1 cells with human M4 and Gqi5, EC80 acetylcholine
Method: Human or rat M4 cDNA, along with the chimeric G protein Gq,5, were transfected into Chinese hamster ovary (CHO-K1) cells purchased from the American Type Culture Collection using Lipofectamine2000. M4/Gqi5/CHO cells were grown in Ham's F-12 medium containing 10% heat-inactivated fetal bovine serum (FBS), 20 mM HEPES, 500 μg/mL G^418 sulfate, and 200 μg/mL Hygromycin B.
For high throughput measurement of agonist-evoked increases in intracellular calcium, CHO-K1 cells stably expressing muscarinic receptors were plated in growth medium lacking G418 and hygromycin at 15,000 cells/20 μL/well in Greiner 384-well black-walled, tissue culture (TC)-treated, clear-bottom plates (VWR). Cells were incubated overnight at 37° C. and 5% CO2. The next day, cells were washed using an ELX 405 (BioTek) with assay buffer; the final volume was then aspirated to 20 μL. Next, 20 μL of a 2.3 μM stock of Fluo-4/acetoxymethyl ester (Invitrogen, Carlsbad, Calif.), prepared as a 2.3 mM stock in DMSO and mixed in a 1:1 ratio with 10% (w/v) Pluronic F-127 and diluted in assay buffer, was added to the wells and the cell plates were incubated for 50 min at 37° C. and 5% CO2. Dye was removed by washing with the ELX 405 and the final volume was aspirated to 20 μL. Compound master plates were formatted in a 10 point concentration-response curve (CRC) format (1:3 dilutions) in 100% DMSO with a starting concentration of 10 or 1 mM using a BRAVO liquid handler (Agilent). Test compound CRCs were then transferred to daughter plates (240 nL) using the Echo acoustic plate reformatter (Labcyte, Sunnyvale, Calif.) and then diluted into assay buffer (40 μL) to a 2× stock using a Thermo Fisher Combi (Thermo Fisher Scientific, Waltham, Mass.).
Calcium flux was measured using the Functional Drug Screening System (FDSS) 6000 or 7000 (Hamamatsu Corporation, Tokyo, Japan) as an increase in the fluorescent static ratio. Compounds were applied to cells (20 μL, 2×) using the automated system of the FDSS at 2 seconds into the protocol and the data were collected at 1 Hz. At 143 s, 10 μL of an EC20 concentration of the muscarinic receptor agonist acetylcholine was added (5×), followed by the addition of […] of an EC80 concentration of acetylcholine at the 268 s time point (5×). Agonist activity was analyzed as a concentration-dependent increase in calcium mobilization upon compound addition. Positive allosteric modulator activity was analyzed as a concentration-dependent increase in the EC2o acetylcholine response. Antagonist activity was analyzed as a concentration-dependent decrease in the EC80 acetylcholine response; for the purposes of the tables herein, an IC50 (inhibitory concentration 50) was calculated as a concentration-dependent decrease of the response elicited by an EC80 concentration of acetylcholine. Concentration-response curves were generated using a four-parameter logistical equation in XLFit curve fitting software (IDBS, Bridgewater, N.J.) for Excel (Microsoft, Redmond, Wash.) or Prism (GraphPad Software, Inc., San Diego, Calif.) or the Dotmatics software platform (Dotmatics, Bishop's Stortford, UK).
Compounds were synthesized as described above. Activity (IC50 and Emin) was determined in the mAChR M4 cell-based functional assay as described above and the data are shown in Table 2.

| Structure (SMILES) | Human M4 Emin [%] | IC50 [nM] |
| --- | --- | --- |
| CC(C)(C)OCCN1C[C@H]2C[C@H](Nc3ccc(-c4cc(F)cc(F)c4F)nn3)C[C@H]2C1 [Compound 53, (3aR,5s,6aS)-2-(2-(tert-butoxy)ethyl)-N-(6-(2,3,5-trifluorophenyl)pyridazin-3-yl)octahydrocyclopenta[c]pyrrol-5-amine] | 3 | 2.6 |
| [2H]C([2H])(c1c(F)cccc1F)N1C[C@H]2C[C@H](Nc3ccc(-c4cc(F)cc(F)c4F)nn3)C[C@H]2C1 [Compound 92, (3aR,5s,6aS)-2-((2,6-difluorophenyl)methyl-d2)-N-(6-(2,3,5-trifluorophenyl)pyridazin-3-yl)octahydrocyclopenta[c]pyrrol-5-amine] | 7 | 750 |
| CC1(C)CC(CN2C[C@H]3C[C@H](Nc4ccc(-c5cc(F)cc(F)c5F)nn4)C[C@H]3C2)CC(C)(C)O1 [Compound 82, (3aR,5s,6aS)-2-((2,2,6,6-tetramethyltetrahydro-2H-pyran-4-yl)methyl)-N-(6-(2,3,5-trifluorophenyl)pyridazin-3-yl)octahydrocyclopenta[c]pyrrol-5-amine] | 2 | 62 |
| Fc1cc(F)c(F)c(-c2ccc(N[C@H]3C[C@@H]4CN(CCC5COC5)C[C@@H]4C3)nn2)c1 [Compound 84, (3aR,5s,6aS)-2-(2-(oxetan-3-yl)ethyl)-N-(6-(2,3,5-trifluorophenyl)pyridazin-3-yl)octahydrocyclopenta[c]pyrrol-5-amine] | 4 | 72 |
| Fc1cc(F)c(F)c(-c2ccc(N[C@H]3C[C@@H]4CN(Cc5ccccc5F)C[C@@H]4C3)nn2)c1 [Compound 89, (3aR,55,6aS)-2-(2-fluorobenzyl)-N-(6-(2,3,5-trifluoropheny)pyridazin-3-yl)octahydrocyclopenta[c]pyrrol-5-amine] | 3 | 170 |
| Fc1cc(F)c(F)c(-c2ccc(N[C@H]3C[C@@H]4CN(Cc5cccc(Cl)n5)C[C@@H]4C3)nn2)c1 [Compound 20, (3aR,5s,6aS)-2-((6-chloropyridin-2-yl)methyl)-N-(6-(2,3,5-trifluorophenyl)pyridazin-3-yl)octahydrocyclopenta[c]pyrrol-5-amine] | 5 | 111 |
| Fc1cc(F)c(F)c(-c2ccc(N[C@H]3C[C@@H]4CN(Cc5cccc(F)c5F)C[C@@H]4C3)nn2)c1 [Compound 90, (3aR,5s,6aS)-2-(2,3-difluorobenzyl)-N-(6-(2,3,5-trifluorophenyl)pyridazin-3-yl)octahydrocyclopenta[c]pyrrol-5-amine] | 10 | 960 |

More lines, in order of falling IC50, values ahead:

| Human M4 Emin [%] | IC50 [nM] | Structure (SMILES) |
| --- | --- | --- |
| 2 | 60 | COc1ccc(OCCN2C[C@H]3C[C@H](Nc4ccc(-c5cc(F)cc(F)c5F)nn4)C[C@H]3C2)cc1 [Compound 59, (3aR,5s,6aS)-2-(2-(4-methoxyphenoxy)ethyl)-N-(6-(2,3,5-trifluorophenyl)pyridazin-3-yl)octahydrocyclopenta[c]pyrrol-5-amine] |
| 2 | 58.9 | CC(N1C[C@H]2C[C@H](Nc3ccc(-c4cc(F)cc(F)c4F)nn3)C[C@H]2C1)C1(C)CCOCC1 (stereo partly drawn) [Compound 46, (3aR,5s,6aS)-2-(1-(4-methyltetrahydro-2H-pyran-4-yl)ethyl)-N-(6-(2,3,5-trifluorophenyl)pyridazin-3-yl)octahydrocyclopenta[c]pyrrol-5-amine] |
| 2 | 57.1 | COc1cccc(CN2C[C@H]3C[C@H](Nc4ccc(-c5cc(F)cc(F)c5F)nn4)C[C@H]3C2)n1 [Compound 17, (3aR,5s,6aS)-2-((6-methoxypyridin-2-yl)methyl)-N-(6-(2,3,5-trifluorophenyl)pyridazin-3-yl)octahydrocyclopenta[c]pyrrol-5-amine] |
| 3 | 56 | [2H]C([2H])(C1CC(C)(C)OC(C)(C)C1)N1C[C@H]2C[C@H](Nc3ccc(-c4cc(F)cc(F)c4F)nn3)C[C@H]2C1 [Compound 83, (3aR,5s,6aS)-2-((2,2,6,6-tetramethyltetrahydro-2H-pyran-4-yl)methyl-d2)-N-(6-(2,3,5-trifluorophenyl)pyridazin-3-yl)octahydrocyclopenta[c]pyrrol-5-amine] |
| 4 | 36.1 | Fc1ccc(CN2C[C@H]3C[C@H](Nc4ccc(-c5cc(F)cc(F)c5F)nn4)C[C@H]3C2)nc1 [Compound 21, (3aR,5s,6aS)-2-((5-fluoropyridin-2-yl)methyl)-N-(6-(2,3,5-trifluorophenyl)pyridazin-3-yl)octahydrocyclopenta[c]pyrrol-5-amine] |
| 3 | 32 | CC(C)(C)CCN1C[C@H]2C[C@H](Nc3ccc(-c4cc(F)cc(F)c4F)nn3)C[C@H]2C1 [Compound 51, (3aR,5s,6aS)-2-(3,3-dimethylbutyl)-N-(6-(2,3,5-trifluorophenyl)pyridazin-3-yl)octahydrocyclopenta[c]pyrrol-5-amine] |
| 2 | 6.89 | [2H]C([2H])(N1C[C@H]2C[C@H](Nc3ccc(-c4cc(F)cc(F)c4F)nn3)C[C@H]2C1)C1(C)CCCCO1 (stereo partly drawn) [Compound 50, (3aR,5s,6aS)-2-((2-methyltetrahydro-2H-pyran-2-yl)methyl-d2)-N-(6-(2,3,5-trifluorophenyl)pyridazin-3-yl)octahydrocyclopenta[c]pyrrol-5-amine] |
| 3 | 1.47 | Fc1cc(F)c(F)c(-c2ccc(N[C@H]3C[C@@H]4CN(C[C@H]5CC6CCC5O6)C[C@@H]4C3)nn2)c1 (stereo partly drawn) [Compound 31, (3aR,5s,6aS)-2-(((2R)-7-oxabicyclo[2.2.1]heptan-2-yl)methyl)-N-(6-(2,3,5-trifluorophenyl)pyridazin-3-yl)octahydrocyclopenta[c]pyrrol-5-amine] |
| 3 | 0.82 | Fc1cc(F)c(F)c(-c2ccc(N[C@H]3C[C@@H]4CN(CC5CCCOCC5)C[C@@H]4C3)nn2)c1 (stereo partly drawn) [Compound 73, (3aR,5s,6aS)-2-(oxepan-4-ylmethyl)-N-(6-(2,3,5-trifluorophenyl)pyridazin-3-yl)octahydrocyclopenta[c]pyrrol-5-amine] |
| 3 | 0.59 | [2H]C([2H])([C@H]1[C@@H]2COC[C@@H]21)N1C[C@H]2C[C@H](Nc3ccc(-c4cc(F)cc(F)c4F)nn3)C[C@H]2C1 [Compound 76, (3aR,5s,6aS)-2-(((1R,58,6s)-3-oxabicyclo[3.1.0]hexan-6-yl)methyl-d2)-N-(6-(2,3,5-trifluorophenyl)pyridazin-3-yl)octahydrocyclopenta[c]pyrrol-5-amine] |
| 3 | 0.47 | Fc1cc(F)c(F)c(-c2ccc(N[C@H]3C[C@@H]4CN(C[C@H]5[C@@H]6COC[C@@H]65)C[C@@H]4C3)nn2)c1 [Compound 71, (3aR,5s,6aS)-2-(((1R,58,6s)-3-oxabicyclo[3.1.0]hexan-6-yl)methyl)-N-(6-(2,3,5-trifluorophenyl)pyridazin-3-yl)octahydrocyclopenta[c]pyrrol-5-amine] |
